EP4107145B1, “PYRAZOLE-INDOLE CONJUGATES FOR PHOTODYNAMIC TREATMENT OF CANCER AND BACTERIAL INFECTIONS” (Univerzita Palackého v Olomouci, priority 2020, dated 2021)

Assays:
[1] = Absorption and fluorescence properties in water; format: physicochemical; conditions: for λem: λex 360 nm for compound 5, 385 nm for compounds 7 and 10
Procedure: All chemicals and solvents were purchased from commercial suppliers and used without further purification unless otherwise specified. Prior to use, N,N-dimethylformamide was stored over molecular sieves (4 Å), while toluene and dichloromethane were dried over anhydrous sodium sulfate. All reactions were performed in oven dried flasks under argon atmosphere with magnetic stirring. Reaction progress was monitored by TLC analysis on Macherey-Nagel™ ALUGRAM® Xtra SIL G/UV254 plates. TLC plates were visualized with UV light (wavelengths 254 and 365 nm) or iodine vapour. Compounds were purified by flash chromatography in a glass column (stationary phase - silicagel, high-purity grade 9385, pore size 60 Å, particle size - 230-400 mesh, supplier Sigma-Aldrich). ^1H and ^13C NMR spectra were recorded at room temperature on a Bruker Avance III 700 spectrometer (700 MHz for ^1H and 176 MHz for ^13C) in CDCl3 as solvent. FT-IR spectra were collected using ATR method on a Bruker Vertex 70v spectrometer with an integrated Platinum ATR accessory. The melting points of crystalline compounds were determined in open capillary tubes with a Buchi M-565 apparatus (temperature gradient - 2 °C/min) and are uncorrected. High-resolution mass spectrometry (HRMS) spectra were obtained in ESI mode on a Bruker MicrOTOF-Q III spectrometer. UV-Vis absorption and fluorescence spectra were registered on an Infinity M200 Pro Tecan microplate reader.
Fluorescence properties of final compounds 5, 7 and 10 were investigated in water. The excitation wavelength λex was set to 360 nm for compound 5 and to 385 nm for compounds 7 and 10. The emission maxima λem of all three compounds are located in the 475-525 nm range, which corresponds to the blue part of the visible light spectrum.
On the other hand, as expected an additional double bond in compound 10, compared to compound 7, caused both a bathochromic shift of the emission maxima. […] Table 2. Absorption and fluorescence characteristics of compounds 5, 7 and 10 in water.

G361 cell line [2] = assay: MTT cell viability assay without irradiation (dark viability); format: cell-based, human; conditions: G361, treated 24 h, no irradiation; viability similar to untreated cells
Procedure: G361 cell line (human skin melanoma) was cultivated in DMEM medium supplemented with 10% fetal bovine serum, 1% penicillin/streptomycin, 1% glutamine, at 37 °C in 5% CO2 atmosphere. Viability of cells was determined using the MTT (Sigma-Aldrich) assay in 96-well microplates (10^4 per well in 100 µl of DMEM). The test compounds were added 24 h post plating and the cells were then incubated for additional 24 h. Cells were then exposed to an irradiation in 100 µl of PBS with 5 mM glucose and incubated for further 24 h. After the experiment, 50 µl of MTT (dissolved in PBS) was added and cells were incubated for another 3 h at 37 °C and in 5 % CO2. The media was then carefully replaced with 100 µl of DMSO in order to solubilize the violet formazan crystals. The measurement of absorbance was carried out on reader Synergy HT at 570 nm and 690 nm. The cell viability of the samples was determined as a percentage of the control cell viability (100 × average of test group / average of control group). The data for the determination of EC50 was calculated using the Phototox v. 2.0 software (ZEBET). Dark viability was measured in parallel under the same conditions without irradiation. The viability of cells treated with compounds 5, 7 and 10 for 24 h without irradiation was similar to untreated cells, thus concluding that the compounds have no cytotoxicity up to 10 µM concentrations (Figure 4).

irradiated G361 cells = assay: Photodynamic treatment (LED 414 nm) with MTT cell viability assay; format: cell-based; conditions: Homo sapiens, G-361, light or radiation study
Procedure: G361 cell line (human skin melanoma) was cultivated in DMEM medium supplemented with 10% fetal bovine serum, 1% penicillin/streptomycin, 1% glutamine, at 37 °C in 5% CO2 atmosphere. Viability of cells was determined using the MTT (Sigma-Aldrich) assay in 96-well microplates (10^4 per well in 100 µl of DMEM). The test compounds were added 24 h post plating and the cells were then incubated for additional 24 h. Cells were then exposed to an irradiation in 100 µl of PBS with 5 mM glucose and incubated for further 24 h. After the experiment, 50 µl of MTT (dissolved in PBS) was added and cells were incubated for another 3 h at 37 °C and in 5 % CO2. The media was then carefully replaced with 100 µl of DMSO in order to solubilize the violet formazan crystals. The measurement of absorbance was carried out on reader Synergy HT at 570 nm and 690 nm. The cell viability of the samples was determined as a percentage of the control cell viability (100 × average of test group / average of control group). The data for the determination of EC50 was calculated using the Phototox v. 2.0 software (ZEBET). Dark viability was measured in parallel under the same conditions without irradiation. An in-house constructed LED based light source specifically designed for the irradiation of 96-well microplates and Petri dishes (Tomecka et al., CZ302829B6, 2006) was used; a maximal wavelength emission of 414 nm and light intensity set to 20 mW/cm^2. For photodynamic treatments, cultivation medium was aspirated and replaced by PBS supplemented with 5 mM glucose. Immediately after irradiation, PBS was removed and full DMEM was added to cells. The cultivation lasted for subsequent 24 h. All assays were performed in triplicates and repeated independently three times. In an initial experiment, G361 cells were treated with the tested compounds for 24 h and then exposed to light (LED source, 414 nm) with a total irradiation dose of 10 J/cm^2. Viability of cells was quantified 24 h after the irradiation by an MTT assay (Table 3). Subsequently, G361 cells treated with compound 7 were also exposed to total irradiation doses of 1 and 50 J/cm^2. Table 3. EC50 of compounds 5, 7 and 10 in irradiated G361 cells (10 J/cm2).

G361 cell line [3] = assay: Reactive oxygen species (ROS) production, CM-H2DCFDA fluorescence; format: cell-based, human; conditions: G361, 0.052 µM, irradiation of 50 J/cm2 (414 nm)
Procedure: ROS was quantified using a CM-H2DCFDA (Invitrogen) solution (10 µl 10 µM DCF + 1 ml PBS) and a microplate reader Synergy HT. Right after adding 50 µl of DCF solution, 25 min incubation and irradiation, the ROS production was determined by measuring fluorescence using Synergy HT reader. An excitation wavelength of 485 nm and an emission wavelength of 548 nm were used.

G361 cells [4] = assay: Mitochondrial membrane potential change assay (JC-1); format: cell-based, human; conditions: G361, 0.052 µM, irradiated with 50 J/cm^2 (414 nm)
Procedure: Mitochondrial membrane potential change was monitored by the fluorescent dye JC-1. After 24 h incubation the cells were washed by PBS. Then 50 µl of a JC-1 solution (Sigma-Aldrich) was added (5 mg/ml in DMSO + 5 ml PBS) and cells were incubated at 37 °C and in 5 % CO2 for 20 min. After incubation the cells were washed by PBS twice. The results were expressed as the ratio of the green fluorescence (excitation wavelength - 485 nm, emission wavelength - 548 nm) and red fluorescence (excitation wavelength - 520 nm, emission wavelength - 590 nm) retained within the cells. JC fluorescence was measured using Synergy HT reader.

G361 cells [5] = assay: Comet assay (DNA fragmentation); format: cell-based, human; conditions: irradiated with 50 J/cm2
Procedure: Microscope slides were pre-coated with 1% HMP agarose (Qbiogene) dissolved in distilled water. After stiffening, two 1% agarose spots (dissolved in PBS) were made and overlayed with a cover slip. Treated or control G361 cells were trypsinized, rinsed by DMEM and then the mixture of 25 µl of cell suspension and 85 µl of 1% LMP agarose (dissolved in PBS) was added to the microscope slides with agarose gel. The microscope slides were immersed in a lysis buffer with 1% Triton X for 1 h and then placed in an electrophoretic tank and dipped into a cool electrophoresis solution for 40 min. After the electrophoresis (20 V, 350 mA, 20 min), the microscopic slides were immersed in a neutralisation buffer (10 min twice). The samples were then stained by SYBR Green (Invitrogen) for 15 min and scored by the SW Comet Score (TriTek Corp.). In order to determine the extent of DNA fragmentation caused by a combination of compound 7 and irradiation in G361 cells, comet assay was performed (Figure 4). The cells were divided into four groups according to degree of DNA fragmentation: 0-10%, 11-30%, 31-50% and 50-100%. […] Table 5. Degree of DNA fragmentation in G361 cell line treated by compound 7 at 0.052 µM and irradiated with 50 J/cm2.

[6] = test system: histone H2A.X phosphorylation at Ser-139; assay: DNA damage by immunoblotting of histone H2A.X phosphorylation; format: cell-based, human; conditions: G361, treated 24 h
Procedure: After the treatment, cell lysates were prepared in RIPA buffer, then proteins were separated on SDS-polyacrylamide gels and electroblotted onto nitrocellulose membranes. After blocking, overnight incubation with specific primary antibodies and incubation with peroxidase-conjugated secondary antibodies, the peroxidase activity was detected with SuperSignal West Pico reagents (Thermo Scientific) using a CCD camera LAS-4000 (Fujifilm). All primary antibodies were diluted in PBS containing 5% powdered milk and 0.1% Tween 20. The specific antibodies were purchased from Cell Signaling (anti-PARP, clone 46D11; HRP-linked rabbit anti-mouse immunoglobulin), Sigma Aldrich (anti-α-tubulin, clone DM1A), Millipore (anti-phospho-histone H2A.X, Ser139, clone JBW301). To independently confirm DNA damage caused by a combination of compound 7 and irradiation in G361 cells, phosphorylation of histone H2A.X at Ser-139 (yH2A.X) was evaluated using immunoblotting analysis (Figure 5). Increased level of yH2A.X is a well-accepted marker of DNA damage. The cells were treated with different doses of compound 7 for 24 h, then either kept in dark or exposed to light with a total irradiation dose of 1, 10 or 50 J/cm^2 and cultivated for subsequent 24 h. After this period, the cells were harvested and analyzed by immunoblotting.

[7] = test system: Escherichia coli (DH5alpha); assay: Antimicrobial activity with light irradiation, colony counting; format: cell-based; conditions: in combination with blue light irradiation (414 nm), Fig. 6
Procedure: Antimicrobial activity was tested on Escherichia coli (DH5alpha).The cells were grown aerobically at 37°C in LB medium. When reached exponential growth phase, the suspension was diluted with fresh LB and supplemented with test compounds or with diluted DMSO (as a control) and seeded on Petri dishes with agar media. After 5 hours the plates were exposed to light from a light emitting diode source, a maximal wavelength emission of 414 nm, light intensity set to 20 mW/cm^2 (M. Tomecka, et al., CZ302829B6, 2006). The control samples for dark toxicity were not exposed to the light. After irradiation the plates were in the dark incubator at 37 °C for 16 h and then the colonies were counted.

[8] = 24 h, G361, 24 h treatment, 414 nm, total irradiation dose 10 J/cm2, MTT 24 h after irradiation

Row | SMILES | λabs [1] | λem [1] | cytotoxicity without irradiation (dark viability) (G361 cell line [2]) | EC50 (irradiated G361 cells; [8]) | EC50 (irradiated G361 cells; G361, 414 nm, total irradiation dose 1 J/cm^2) | EC50 (irradiated G361 cells; G361, 414 nm, total irradiation dose 50 J/cm^2) | ROS production increase in comparison to control cells (G361 cell line [3]) | JC-1 polymer aggregation within mitochondria (mitochondrial membrane potential) (G361 cells [4]) | DNA fragmentation in comparison with untreated control cells (G361 cells [5]; G361, 0.052 µM) | relative number of cells, degree of DNA fragmentation 0-10 % (G361 cells [5]; G361, treated, 0.052 µM) | relative number of cells, degree of DNA fragmentation 11-30 % (G361 cells [5]; G361, treated, 0.052 µM) | relative number of cells, degree of DNA fragmentation 31-50 % (G361 cells [5]; G361, treated, 0.052 µM) | relative number of cells, degree of DNA fragmentation 51-100 % (G361 cells [5]; G361, treated, 0.052 µM) | H2A.X phosphorylation (yH2A.X) ([6]; irradiation dose 1 J/cm2 (414 nm)) | H2A.X phosphorylation (yH2A.X) ([6]; irradiation dose 10 J/cm2 (414 nm)) | H2A.X phosphorylation (yH2A.X) ([6]; irradiation dose 50 J/cm2 (414 nm)) | H2A.X phosphorylation (yH2A.X) ([6]; kept in dark) | antibacterial effect [7]
1 | CCCCCCOc1nn(-c2ccccc2)cc1C#Cc1ccc2c(c1)C(C)(C)C(c1ccccc1)=N2 [Compound 5, 5-{[3-(Hexyloxy)-1-phenyl-1H-pyrazol-4-yl]ethynyl}-3,3-dimethyl-2-phenyl-3H-indole] | 355 nm | 475 nm | > 10 µM | 6213 ± 38 nM | – | – | – | – | – | – | – | – | – | – | – | – | – | –
2 | CCCCCCOc1nn(-c2ccccc2)cc1/C=C/c1ccc2c(c1)C(C)(C)C(c1ccccc1)=N2 [Compound 7, 5-{(E)-2-[3-(Hexyloxy)-1-phenyl-1H-pyrazol-4-yl]ethenyl}-3,3-dimethyl-2-phenyl-3H-indole] | 380 nm | 495 nm | > 10 µM | 262 ± 2 nM | 3080 ± 155 nM | 52 nM | 30% | decrease in JC-1 polymer aggregation within mitochondria | significant DNA fragmentation | 62.83 ± 2.72% | 30.73 ± 4.07% | 4.84 ± 0.65% | 1.6 ± 1.59% | faint yH2A.X signal | massive increase of yH2A.X | massive increase of yH2A.X | did not show any H2A.X phosphorylation | antibacterial effect
3 | CCCCCCOc1nn(-c2ccccc2)cc1/C=C/C=C/c1ccc2c(c1)C(C)(C)C(c1ccccc1)=N2 [Compound 10, 5-{(1E, 3E)-4-[3-(Hexyloxy)-1-phenyl-1H-pyrazol-4-yl]buta-1,3-dien-1-yl}-3,3-dimethyl-2-phenyl-3H-indole] | 380 nm | 525 nm | > 10 µM | 2060 ± 82 nM | – | – | – | – | – | – | – | – | – | – | – | – | – | –
